Source: EP0646574A1, “Ketonic indane derivatives, their preparation and therapeutic application thereof” (LABORATOIRE INNOTHERA Société Anonyme, priority 1993, dated 1995)

Key:
veines saphènes de lapin = experiment: contraction of isolated rabbit saphenous veins produced by KCl (40 mM); conditions: for EC50: potentiation of KCl (40 mM) contractions of rabbit saphenous veins, read-out: DE50 (the source's name)
Excerpt: L'effet contractile est mesuré in vitro : • par la force de contraction développée par des anneaux vasculaires quiescents ou stimulés (soit électriquement soit par des agents physiologiques) et maintenus dans des conditions isométriques, • par la pression développée par des réseaux vasculaires perfusés à débit constant.
Les composés de formule (1) et leurs sels éventuels augmentent la contraction des veines saphènes animales produite par la noradrénaline et la dépolarisation (solution hyperpotassique) sans affecter, dans la majorité des cas, les réponses contractiles artérielles. A titre illustratif, les composés des exemples 3, 5, 8, 11, 13, 15, 31 (10 nM à […]) augmentent de plus de 40 % (DE50 ± 0,3 microM) les contractions des veines saphènes de lapin produites par le KCl (40 mM).

[1] = free radical scavenging with DPPH as stable free radical; conditions: DPPH model
Excerpt: L'effet "piégeur de radicaux libres" global est étudié in vitro par un modèle utilisant le 1,1-diphényl-2-picrylhydrazyl (DPPH) comme radical libre stable, méthode dérivée de celle décrite par Lamaison et col., Plantes Médic. et Phytothérapie, XXII, 1988, 231-234.

rat = experiment: carrageenan-induced pleurisy in the rat; assay type: in vivo; conditions: twice i.p. 5 mg/kg, 6 hours after carrageenan injection
Description: L'activité antiinflammatoire est démontrée par la mesure de l'inhibition de l'oedème et de la migration leucocytaire après induction d'une pleurésie chez le rat par injection de carragénine dans la cavité pleurale (Almeida et col., J. Pharmacol. Exp. Therap., 1980, 214 : 74).
A titre illustratif, les composés des exemples 21, 23 administrés deux fois en i.p. à la dose de 5 mg/kg inhibent l'oedème et la migration leucocytaire dans la cavité pleurale, 6 heures après injection de carragénine dans le modèle de la pleurésie chez le rat.

[2] = tested on: hyperperméabilité vasculaire induite par le zymosan; experiment: vascular hyperpermeability induced by zymosan, in vivo; conditions: 2 and 4 hours after per os 1 à 20 mg/kg
Excerpt: La perméabilité vasculaire est étudiée in vivo et in vitro par la mesure de l'extravasation d'albumine ou de colorant liant l'albumine (Bleu Evans). In vivo, l'hyperperméabilité est induite par l'injection d'une solution d'histamine, de bradykinine ou de zymosan. Les modèles in vitro permettent de réaliser des hyperpressions (sur un territoire vasculaire isolé) et/ou des réactions vasculaires inflammatoires.
A titre illustratif, les composés des exemples 28, 27, 25 diminuent l'hyperperméabilité vasculaire induite par le zymosan lorsque celle-ci est mesurée 2 et 4 heures après administration per os de 1 à 20 mg/kg.

| SMILES | augmentation des contractions des veines saphènes de lapin produites par le KCl (40 mM) (veines saphènes de lapin) | EC50 (veines saphènes de lapin) | other results |
| --- | --- | --- | --- |
| Nc1cccc(NC(=O)NN=c2c(=O)c3ccccc3c2=O)c1 [exemple 3, 2-[(3-Aminophenyl)aminocarbonylhydrazono]-2.3-dihydro1.3-dioxo-1H-indène] | > 40% | ~300 nM | – |
| Nc1ccc(NC(=O)NN=c2c(=O)c3ccccc3c2=O)cc1 [exemple 5, 2-[(4-Aminophenyl)aminocarbonylhydrazono]-2.3-dihydro-1.3-dioxo-1H-indène] | > 40% | ~300 nM | – |
| O=C(NN=c1c(=O)c2ccccc2c1=O)Nc1ccccc1[N+](=O)[O-] [exemple 7, 2.3-Dihydro-1.3-dioxo-2-[(2-nitrophenyl)aminocarbonylhydrazono]-1H-indène] | – | – | effet antiradicalaire [1]: présentent un effet antiradicalaire |
| O=C(NN=c1c(=O)c2ccccc2c1=O)Nc1cccc([N+](=O)[O-])c1 [exemple 8, 2.3-Dihydro-1.3-dioxo-2-[(3-nitrophenyl)aminocarbonylhydrazono]-1H-indène] | > 40% | ~300 nM | – |
| O=C(NN=c1c(=O)c2ccccc2c1=O)Nc1ccc([N+](=O)[O-])cc1 [exemple 9, 2.3-Dihydro-1.3-dioxo-2-(4-nitrophenylaminocarbonylhydrazono)-1H-indène] | – | – | effet antiradicalaire [1]: présentent un effet antiradicalaire |
| O=C(NN=c1c(=O)c2ccccc2c1=O)Nc1ccccn1 [exemple 11, 2.3-Dihydro-1.3-dioxo-2-[(2-pyridyl)aminocarbonylhydrazono]-1H-indène, chlorhydrate] | > 40% | ~300 nM | – |
| O=C(NN=c1c(=O)c2ccccc2c1=O)Nc1cccnc1 [exemple 13, 2.3-Dihydro-1.3-dioxo-2-[(3-pyridyl)aminocarbonylhydrazono]-1H-indène] | > 40% | ~300 nM | – |
| O=C(NN=c1c(=O)c2cccc(F)c2c1=O)Nc1ccccc1 [exemple 21, 2.3-Dihydro-1.3-dioxo-4-fluoro-2-(phenylaminocarbonylhydrazono)-1H-indène] | – | – | migration leucocytaire dans la cavité pleurale (rat): inhibent; oedème (rat): inhibent |
| O=C(NN=c1c(=O)c2cccc(F)c2c1=O)Nc1cccnc1 [exemple 23, 2.3-Dihydro-1.3-dioxo-4-fluoro-2-[(3-pyridyl)aminocarbonylhydrazono]-1H-indène] | – | – | migration leucocytaire dans la cavité pleurale (rat): inhibent; oedème (rat): inhibent |
| O=C(NN=c1c(=O)c2cccc(F)c2c1=O)Nc1ccncc1 [exemple 25, 2.3-Dihydro-1.3-dioxo-4-fluoro-2-[(4-pyridyl)aminocarbonylhydrazono]-1H-indène] | – | – | hyperperméabilité vasculaire induite par le zymosan [2]: diminuent |
| O=C(NN=c1c(=O)c2ccc(F)cc2c1=O)Nc1ccccc1 [exemple 27, 2.3-Dihydro-1.3-dioxo-5-fluoro-2-(phenylaminocarbonylhydrazono)-1H-indène] | – | – | hyperperméabilité vasculaire induite par le zymosan [2]: diminuent |
| O=C(NN=c1c(=O)c2ccc(F)cc2c1=O)Nc1ccc(F)cc1 [exemple 28] | – | – | hyperperméabilité vasculaire induite par le zymosan [2]: diminuent |
| O=C(NN=c1c(=O)c2ccc(F)cc2c1=O)Nc1ccncc1 [exemple 31, 2.3-Dihydro-1.3-dioxo-5-fluoro-2-[(4-pyridyl)aminocarbonylhydrazono]-1H-indène] | > 40% | ~300 nM | – |
